Source: PMC8115037, “Paracoccus denitrificans: a genetically tractable model system for studying respiratory complex I” (Scientific Reports, 2021)
Read-outs that look alike come from different tables or passages of the source.

Columns and labels:
[1] = target: T1, complex I (NADH:ubiquinone oxidoreductase), Pd-CI (Paracoccus denitrificans, UniProt A1B487+A1B495+A1B497); assay: NADH:DQ oxidoreductase assay, detergent-solubilized purified enzyme ([…] in proteoliposomes); format: biochemical
T1 construct: gene nuoD; intact purified complex I, His6-tag on C-terminus of Nqo5 (Pd-Nqo5^His6); with multisubunit complex (14 core Nqo subunits plus PdNUMM, PdNUYM, PdN7BM)
T1 sequence (A1B496 entry or part of it): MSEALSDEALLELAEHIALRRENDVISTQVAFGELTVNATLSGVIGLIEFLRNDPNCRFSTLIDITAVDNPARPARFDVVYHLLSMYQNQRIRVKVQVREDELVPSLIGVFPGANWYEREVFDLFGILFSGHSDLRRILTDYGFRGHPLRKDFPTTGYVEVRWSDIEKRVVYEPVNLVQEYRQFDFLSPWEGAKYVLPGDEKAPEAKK
T1 sequence (A1B495 whole entry): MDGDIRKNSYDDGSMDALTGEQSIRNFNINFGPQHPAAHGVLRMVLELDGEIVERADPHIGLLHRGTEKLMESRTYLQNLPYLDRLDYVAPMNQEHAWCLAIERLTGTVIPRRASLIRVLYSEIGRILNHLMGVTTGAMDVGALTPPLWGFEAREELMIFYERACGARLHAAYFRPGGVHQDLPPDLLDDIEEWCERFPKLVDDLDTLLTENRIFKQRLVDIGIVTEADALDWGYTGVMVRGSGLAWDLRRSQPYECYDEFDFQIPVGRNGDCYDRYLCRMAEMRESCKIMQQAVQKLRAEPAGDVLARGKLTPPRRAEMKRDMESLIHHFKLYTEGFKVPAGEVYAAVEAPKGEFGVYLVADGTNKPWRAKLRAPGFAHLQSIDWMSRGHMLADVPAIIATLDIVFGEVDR
T1 sequence (A1B487 whole entry): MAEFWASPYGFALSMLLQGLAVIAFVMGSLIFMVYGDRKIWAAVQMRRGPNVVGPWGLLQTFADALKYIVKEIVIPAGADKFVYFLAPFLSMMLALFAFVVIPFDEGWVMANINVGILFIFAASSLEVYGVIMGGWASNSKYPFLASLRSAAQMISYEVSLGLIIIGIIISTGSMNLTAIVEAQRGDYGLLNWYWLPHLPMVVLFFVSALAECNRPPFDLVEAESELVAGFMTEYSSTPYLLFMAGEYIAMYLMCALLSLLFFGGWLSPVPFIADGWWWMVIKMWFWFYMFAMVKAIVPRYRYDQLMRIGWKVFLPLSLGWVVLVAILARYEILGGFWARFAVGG
T1 sequence (A1B498 entry or part of it, further chain): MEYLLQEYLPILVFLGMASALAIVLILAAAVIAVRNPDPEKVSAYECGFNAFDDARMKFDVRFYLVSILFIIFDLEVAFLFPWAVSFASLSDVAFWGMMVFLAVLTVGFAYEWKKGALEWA
T1 sequence (A1B497 whole entry): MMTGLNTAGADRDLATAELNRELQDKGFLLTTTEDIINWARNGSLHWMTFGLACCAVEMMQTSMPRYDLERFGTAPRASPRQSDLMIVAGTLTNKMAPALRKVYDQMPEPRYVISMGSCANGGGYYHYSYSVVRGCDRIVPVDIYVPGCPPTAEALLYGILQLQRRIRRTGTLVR

[2] = target: T1, complex I (NADH:ubiquinone oxidoreductase), Pd-CI; assay: as above; format: biochemical; remark: listed apart in the source

| SMILES | IC50 [1] [µM] | IC50 [2] [µM] |
| --- | --- | --- |
| C=C(C)[C@H]1Cc2c(ccc3c2O[C@@H]2COc4cc(OC)c(OC)cc4[C@@H]2C3=O)O1 [rotenone] | 2.23 ± 0.185 | – |
| C/C=C(\C)[C@H](O)[C@H](C)/C=C(C)/C=C/C/C(C)=C/Cc1nc(OC)c(OC)c(O)c1C [piericidin A] | – | 0.072 ± 0.007 |
